Experimental data as given in patent publication US20170253601A1, “Substituted Pyrrolidine Compounds” (EPIZYME, INC., priority 2014, published 2017).

biological target: T1, SMYD2 (Homo sapiens, UniProt Q9NRG4); assay: SMYD2 Biochemical Assay (3H-SAM, biotinylated peptide substrate, Flashplate); settings: Table 1; average of n = 1 to n = 50; read-out: SMYD2 Biochem IC50
T1 construct: Full length SMYD2 (NP 064582.2) was cloned; His6 (N, cleaved yes); FLAG (N); made in house; host or cells: Sf9 insect cells
T1 sequence (Q9NRG4 whole entry): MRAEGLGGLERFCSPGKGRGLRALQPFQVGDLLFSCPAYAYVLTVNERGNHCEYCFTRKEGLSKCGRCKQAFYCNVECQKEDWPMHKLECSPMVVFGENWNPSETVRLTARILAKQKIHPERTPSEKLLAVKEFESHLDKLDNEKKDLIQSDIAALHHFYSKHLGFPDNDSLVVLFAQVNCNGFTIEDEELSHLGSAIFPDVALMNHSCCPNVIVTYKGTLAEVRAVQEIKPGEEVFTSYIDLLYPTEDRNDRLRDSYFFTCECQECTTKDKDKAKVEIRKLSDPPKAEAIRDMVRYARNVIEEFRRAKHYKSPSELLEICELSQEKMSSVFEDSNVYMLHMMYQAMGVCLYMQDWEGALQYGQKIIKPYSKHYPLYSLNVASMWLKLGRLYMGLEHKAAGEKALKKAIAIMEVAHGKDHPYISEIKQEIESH
From the text: S-adenosylmethionine (SAM), S-adenosylhomocysteine (SAH), bicine, Tween20, dimethylsulfoxide (DMSO), bovine skin gelatin (BSG), and Tris(2-carboxyethyl)phosphine hydrochloride (TCEP) were purchased from Sigma-Aldrich at the highest level of purity possible. ^3H-SAM was purchase from American Radiolabeled Chemicals with a specific activity of 80 Ci/mmol. 384-well streptavidin Flashplates were purchased from PerkinElmer.
Peptide was synthesized with a N-terminal linker-affinity tag motif and a C-terminal amide cap by 21st Century Biochemicals. The peptide was high-performance liquid chromatography (HPLC) purified to greater than 95% purity and confirmed by liquid chromatography mass spectrometry (LC-MS). The sequence was […](K-Biot)-amide. (SEQ ID No: 3)
Full length SMYD2 (NP 064582.2) was cloned into a pFastbac-Htb-lic vector with an N-terminal His6 tag and FLAG tag, preceded by a TEV protease cleavage site. The protein was expressed in Sf9 insect cells. Cells were resuspended in lysis buffer (25 mM HEPES-NaOH, pH 7.5, 200 mM NaCl, 5% glycerol, and 5 mM β-ME) and lysed by sonication. The protein was purified by Ni-NTA (Qiagen), followed by TEV cleavage to remove the His6 tag, subtractive Ni-NTA (Qiagen), and gel filtration chromatography using an […] (GE Healthcare). Purified protein was stored in 20 mM Tris-HCl, pH 8.0, 100 mM NaCl, and 1 mM TCEP.
The assays were all performed in a buffer consisting of 20 mM Bicine (pH=7.6), 1 mM TCEP, 0.005% Bovine Skin Gelatin, and 0.002% Tween20, prepared on the day of use. Compounds in 100% DMSO (1 ul) were spotted into a polypropylene 384-well V-bottom plates (Greiner) using a Platemate Plus outfitted with a 384-channel head (Thermo Scientific). DMSO (1 ul) was added to Columns 11, 12, 23, 24, rows A-H for the maximum signal control and 1 ul of SAH, a known product and inhibitor of SMYD2, was added to columns 11, 12, 23, 24, rows I-P for the minimum signal control. A cocktail (40 ul) containing the SMYD2 enzyme was added by Multidrop Combi (Thermo-Fisher). The compounds were allowed to incubate with SMYD2 for 30 min at room temperature, then a cocktail (10 ul) containing ^3H-SAM and peptide was added to initiate the reaction (final volume=51 ul). The final concentrations of the components were as follows: SMYD2 was 1.5 nM, ^3H-SAM was 10 nM, and peptide was 60 nM, SAH in the minimum signal control wells was 1000 uM, and the DMSO concentration was 2%. The assays were stopped by the addition of non-radioactive SAM (10 ul) to a final concentration of 600 uM, which dilutes the ^3H-SAM to a level where its incorporation into the peptide substrate is no longer detectable. 50 ul of the reaction in the 384-well polypropylene plate was then transferred to a 384-well Flashplate and the biotinylated peptides were allowed to bind to the streptavidin surface for at least 1 hour before being washed three times with 0.1% Tween20 in a Biotek ELx405 plate washer. The plates were then read in a PerkinElmer TopCount plate reader to measure the quantity of ^3H-labeled peptide bound to the Flashplate surface, measured as disintegrations per minute (dpm) or alternatively, referred to as counts per minute (cpm).
Where dpm=disintegrations per minute, cmpd=signal in assay well, and min and max are the respective minimum and maximum signal controls.
Where top and bottom are the normally allowed to float, but may be fixed at 100 or 0 respectively in a 3-parameter fit. The Hill Coefficient normally allowed to float but may also be fixed at 1 in a 3-parameter fit. I is the compound concentration.
SMYD2 biochemical assay data for representative Compounds of the Disclosure are presented in Tables 1-3 in the column titled “SMYD2 Biochem IC50 (μM).”

Row | Structure (SMILES) | IC50 [µM]
1 | C[C@H]1CN(C2CC2)C[C@H]1NC(=O)c1cc(C2CC2)on1 (racemic) [Cpd. No. 45, (±)-cis-5-cyclopropyl-N-(1-cyclopropyl-4-methylpyrrolidin-3-yl)isoxazole-3-carboxamide] | 19.2
2 | C[C@@H]1CN(C2CC2)C[C@H]1NC(=O)c1cc(C2CC2)on1 (racemic) [Cpd. No. 46, (±)-trans-5-cyclopropyl-N-(1-cyclopropyl-4-methylpyrrolidin-3-yl)isoxazole-3-carboxamide] | 2.75
3 | O=C(N[C@@H]1CN(C2CC2)C[C@@H]1CO)c1cc(C2CC2)on1 (racemic) [Cpd. No. 48, (±)-cis-5-cyclopropyl-N-(1-cyclopropyl-4-(hydroxymethyl)pyrrolidin-3-yl)isoxazole-3-carboxamide] | 8.46
4 | C[C@H]1CNC[C@H]1NC(=O)c1cc(C2CC2)on1 (racemic) [compound 38, (±)-cis-5-cyclopropyl-N-(4-methylpyrrolidin-3-yl)isoxazole-3-carboxamide] | 15.4
5 | C[C@@H]1CN(C)C[C@H]1NC(=O)c1cc(C2CC2)on1 (racemic) [compound 39] | 33.6
6 | CN1C[C@@H](O)[C@H](NC(=O)c2cc(C3CC3)on2)C1 (racemic) [compound 40, (±)-trans-5-cyclopropyl-N-(-4-hydroxy-1-methylpyrrolidin-3-yl)isoxazole-3-carboxamide] | > 50
7 | C[C@@H]1CNC[C@H]1NC(=O)c1cc(C2CC2)on1 (racemic) [compound 43, (±)-trans-5-cyclopropyl-N-(4-methyl-pyrrolidin-3-yl)isoxazole-3-carboxamide] | > 50
8 | C[C@H]1CN(C)C[C@H]1NC(=O)c1cc(C2CC2)on1 (racemic) [compound 44] | 4.6
9 | O=C(N[C@@H]1CN(C2CC2)C[C@H]1O)c1cc(C2CC2)on1 (racemic) [compound 47, (±)-trans-5-cyclopropyl-N-(1-cyclopropyl-4-hydroxypyrrolidin-3-yl)isoxazole-3-carboxamide] | > 50
10 | O=C(N[C@@H]1C[C@H](CO)N(C2CC2)C1)c1cc(C2CC2)on1 (racemic) [compound 49, (±)-cis-5-cyclopropyl-N-(1-cyclopropyl-5-(hydroxy-methyl)pyrrolidin-3-yl)isoxazole-3-carboxamide] | > 50
11 | C[C@H]1CN(C2CC2)C[C@@H]1NC(=O)c1cc(C2CC2)no1 (racemic) [compound 50, (±)-trans-3-cyclopropyl-N-(1-cyclopropyl-4-methylpyrrolidin-3-yl)isoxazole-5-carboxamide] | > 50
12 | C[C@H]1CN(C2CC2)C[C@H]1NC(=O)c1cc(C2CC2)no1 (racemic) [compound 51, (±)-cis-3-cyclopropyl-N-(1-cyclopropyl-4-methylpyrrolidin-3-yl)isoxazole-5-carboxamide] | 7.9
13 | CCc1cc(C(=O)N[C@H]2CN(C3CC3)C[C@@H]2C)no1 (racemic) [compound 52, (±)-trans-N-(1-cyclopropyl-4-methylpyrrolidin-3-yl)-5-ethylisoxazole-3-carboxamide] | > 50
14 | C[C@H]1CN(C2CC2)C[C@@H]1NC(=O)c1cc(C2CCCC2)on1 (racemic) [compound 53, (±)-trans-5-cyclopentyl-N-(1-cyclopropyl-4-methylpyrrolidin-3-yl)isoxazole-3-carboxamide] | > 50
15 | C[C@H]1CN(C2CC2)C[C@H]1NC(=O)c1cc(C2CCCC2)on1 (racemic) [compound 54, (±)-cis-5-cyclopentyl-N-(1-cyclopropyl-4-methylpyrrolidin-3-yl)isoxazole-3-carboxamide] | > 50

same assay, conditions: Table 2; average of n = 1 to n = 50; read-out: SMYD2 Biochem IC50

Row | Structure (SMILES) | IC50 [µM]
16 | C[C@H]1C[C@@H](NC(=O)c2cc(C3CC3)on2)CN1 (racemic) [compound 63, (±)-cis 5-cyclopropyl-N-(5-methylpyrrolidin-3-yl)isoxazole-3-carboxamide] | > 50
17 | C[C@H]1C[C@@H](NC(=O)c2cc(C3CC3)on2)CN1C (racemic) [compound 64, (±)-cis-5-cyclopropyl-N-(1,5-dimethylpyrrolidin-3-yl)isoxazole-3-carboxamide] | > 50
18 | CC(C)N1C[C@H](C)[C@H](NC(=O)c2cc(C3CC3)on2)C1 (racemic) [compound 65, (±)-cis-5-cyclopropyl-N-(1-isopropyl-4-methylpyrrolidin-3-yl)isoxazole-3-carboxamide] | 2.4
19 | C[C@H]1CN(S(C)(=O)=O)C[C@H]1NC(=O)c1cc(C2CC2)on1 (racemic) [compound 66, (±)-cis-5-cyclopropyl-N-(4-methyl-1-(methyl-sulfonyl)pyrrolidin-3-yl)isoxazole-3-carboxamide] | > 50
20 | C[C@@H]1CN(S(=O)(=O)C2CCNCC2)C[C@@H]1NC(=O)c1cc(C2CC2)on1 (racemic) [compound 67, (±)-cis 5-cyclopropyl-N-(4-methyl-1-(piperidin-4-ylsulfonyl)pyrrolidin-3-yl)isoxazole-3-carboxamide] | > 50
21 | C[C@@H]1CN(C(=O)CN)C[C@@H]1NC(=O)c1cc(C2CC2)on1 (racemic) [compound 68, (±)-cis-5-cyclopropyl-N-(1-glycyl-4-methylpyrrolidin-3-yl)isoxazole-3-carboxamide] | > 50
22 | C[C@@H]1CN(C(=O)CO)C[C@@H]1NC(=O)c1cc(C2CC2)on1 (racemic) [compound 69, (±)-cis-5-cyclopropyl-N-(1-(2-hydroxyacetyl)-4-methylpyrrolidin-3-yl)isoxazole-3-carboxamide] | > 50
23 | C[C@H]1CN(C(=O)C2CCNCC2)C[C@H]1NC(=O)c1cc(C2CC2)on1 (racemic) [compound 70, (±)-cis-5-cyclopropyl-N-(4-methyl-1-(piperidine-4-carbonyl)pyrrolidin-3-yl)isoxazole-3-carboxamide] | > 50
24 | C[C@@H]1CN(C(=O)CC2CCNCC2)C[C@@H]1NC(=O)c1cc(C2CC2)on1 (racemic) [compound 71, (±)-cis-5-cyclopropyl-N-(4-methyl-1-(2-(piperidin-4-yl)acetyl)pyrrolidin-3-yl)isoxazole-3-carboxamide] | > 50
25 | C[C@@H]1CN(C2CCCCC2)C[C@@H]1NC(=O)c1cc(C2CC2)on1 (racemic) [compound 72, (±)-cis-N-(1-cyclohexyl-4-methylpyrrolidin-3-yl)-5-cyclopropylisoxazole-3-carboxamide] | 18.4
26 | C[C@@H]1CN(C2CCOCC2)C[C@@H]1NC(=O)c1cc(C2CC2)on1 (racemic) [compound 73, (±)-cis-5-cyclopropyl-N-(4-methyl-1-(tetrahydro-2H-pyran-4-yl)pyrrolidin-3-yl)isoxazole-3-carboxamide] | 40.7
27 | C[C@@H]1CN(C2CCS(=O)(=O)CC2)C[C@@H]1NC(=O)c1cc(C2CC2)on1 (racemic) [compound 74, (±)-cis-5-cyclopropyl-N-(1-(1,1-dioxidotetrahydro-2H-thiopyran-4-yl)-4-methylpyrrolidin-3-yl)isoxazole-3-carboxamide] | 14
28 | C[C@H]1CN(C2CCCC2)C[C@H]1NC(=O)c1cc(C2CC2)on1 (racemic) [compound 75, (±)-cis-N-(1-cyclopentyl-4-methylpyrrolidin-3-yl)-5-cyclopropylisoxazole-3-carboxamide] | 5
29 | C[C@H]1CN(CCS(C)(=O)=O)C[C@H]1NC(=O)c1cc(C2CC2)on1 (racemic) [compound 77, (±)-cis-cyclopropyl-N-((3S)-4-methyl-1-(2-(methyl-sulfonyl)ethyl)pyrrolidin-3-yl)isoxazole-3-carboxamide] | > 50
